# ChEMBL document CHEMBL1145159 (J Med Chem, 2005)
# Where “and” joins values, the source holds several entries; their conditions need not be identical. Equal entries are not always repeated.
# Tests used:
# [1] = biological target: T1, Neuronal acetylcholine receptor subunit alpha-7 (Homo sapiens, UniProt P36544); test: (§1) Maximal response against Nicotinic acetylcholine receptor alpha 7
# [2] = biological target: Neuronal acetylcholine receptor subunit alpha-3 (Homo sapiens) (UniProt P32297); test: Maximal response against [Ca2+] permeability and [Ca2+] modulation of alpha-3 nicotinic receptor
# [3] = biological target: T2, Neuronal acetylcholine receptor; alpha3/beta2 (Homo sapiens, UniProt P17787+P32297); test: Maximal response against Nicotinic acetylcholine receptor alpha3-beta2 expressed in HEK293 cells; assay type: cell-based
# T2 sequence (P17787 whole entry): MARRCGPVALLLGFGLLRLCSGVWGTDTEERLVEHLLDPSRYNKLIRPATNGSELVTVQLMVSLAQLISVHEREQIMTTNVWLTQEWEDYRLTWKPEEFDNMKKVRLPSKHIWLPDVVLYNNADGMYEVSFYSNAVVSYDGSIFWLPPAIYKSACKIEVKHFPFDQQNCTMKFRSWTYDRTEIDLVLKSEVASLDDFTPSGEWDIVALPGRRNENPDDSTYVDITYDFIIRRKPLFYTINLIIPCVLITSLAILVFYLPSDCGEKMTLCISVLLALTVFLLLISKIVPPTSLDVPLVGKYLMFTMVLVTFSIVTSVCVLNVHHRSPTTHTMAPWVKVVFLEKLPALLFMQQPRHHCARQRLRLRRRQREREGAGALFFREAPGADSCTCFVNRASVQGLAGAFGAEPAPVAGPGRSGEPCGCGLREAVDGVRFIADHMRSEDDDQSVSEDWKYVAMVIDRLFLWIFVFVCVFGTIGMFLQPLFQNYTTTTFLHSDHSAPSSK
# T2 sequence (P32297 whole entry): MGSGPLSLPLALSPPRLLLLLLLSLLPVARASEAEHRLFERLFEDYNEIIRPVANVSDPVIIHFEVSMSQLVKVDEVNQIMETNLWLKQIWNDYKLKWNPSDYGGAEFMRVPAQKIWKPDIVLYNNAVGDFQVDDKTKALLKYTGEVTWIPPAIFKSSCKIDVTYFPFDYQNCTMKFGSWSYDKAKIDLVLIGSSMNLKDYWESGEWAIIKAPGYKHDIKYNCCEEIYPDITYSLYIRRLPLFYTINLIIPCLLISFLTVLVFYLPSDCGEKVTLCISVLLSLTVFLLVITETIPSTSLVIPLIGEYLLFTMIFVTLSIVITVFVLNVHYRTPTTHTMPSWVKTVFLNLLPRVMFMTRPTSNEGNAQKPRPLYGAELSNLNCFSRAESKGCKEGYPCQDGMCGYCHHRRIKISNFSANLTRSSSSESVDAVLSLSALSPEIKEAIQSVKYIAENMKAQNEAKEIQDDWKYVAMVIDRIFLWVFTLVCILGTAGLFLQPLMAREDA
# [4] = biological target: T3, Neuronal acetylcholine receptor; alpha4/beta2 (Homo sapiens, UniProt P17787+P43681); test: Maximal response against Nicotinic acetylcholine receptor alpha4-beta2 expressed in HEK293 cells; assay type: cell-based
# [5] = Effective concentration against Nicotinic acetylcholine receptor alpha2-beta4 expressed in xenopus oocytes; assay type: cell-based; conditions: oocyte
# [6] = Effective concentration against Nicotinic acetylcholine receptor alpha4-beta4 expressed in xenopus oocytes; assay type: cell-based; conditions: oocyte
# [7] = Effective concentration against Nicotinic acetylcholine receptor alpha3-beta4 expressed in xenopus oocytes; assay type: cell-based; conditions: oocyte
# [8] = biological target: T4, Neuronal acetylcholine receptor; alpha3/beta4 (Homo sapiens, UniProt P30926+P32297); test: Maximal response against Nicotinic acetylcholine receptor alpha3-beta4 expressed in HEK293 cells; assay type: cell-based
# T4 sequence (P30926 whole entry): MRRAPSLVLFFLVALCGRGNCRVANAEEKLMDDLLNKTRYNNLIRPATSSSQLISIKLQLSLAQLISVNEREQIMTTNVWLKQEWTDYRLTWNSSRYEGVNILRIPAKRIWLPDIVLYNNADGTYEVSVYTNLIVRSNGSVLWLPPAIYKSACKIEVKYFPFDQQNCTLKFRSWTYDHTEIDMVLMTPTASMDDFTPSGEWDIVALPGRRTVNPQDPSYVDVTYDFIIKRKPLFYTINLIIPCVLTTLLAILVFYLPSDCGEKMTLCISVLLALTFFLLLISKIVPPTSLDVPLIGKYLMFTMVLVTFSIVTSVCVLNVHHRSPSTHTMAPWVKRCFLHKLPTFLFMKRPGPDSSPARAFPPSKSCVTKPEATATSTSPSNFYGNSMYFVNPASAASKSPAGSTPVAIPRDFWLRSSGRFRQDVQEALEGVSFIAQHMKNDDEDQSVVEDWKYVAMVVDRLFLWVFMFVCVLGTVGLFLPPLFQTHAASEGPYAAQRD
# T4 sequence (P32297 whole entry): as the sequence (P32297 whole entry) above
# [9] = Effective concentration against Nicotinic acetylcholine receptor alpha4-beta2 expressed in xenopus oocytes; assay type: cell-based; conditions: oocyte
# [10] = biological target: T4, Neuronal acetylcholine receptor; alpha3/beta4; test: Effective concentration against Nicotinic acetylcholine receptor alpha3-beta4; assay type: protein-complex assay
# [11] = biological target: T5, Neuronal acetylcholine receptor; alpha3/beta4 (Rattus norvegicus) (UniProt P04757+P12392); test: Maximal response against Nicotinic acetylcholine receptor alpha3-beta4 in rat mid brain slices
# [12] = biological target: Neuronal acetylcholine receptor; alpha2/beta4 (Rattus norvegicus) (UniProt P12389+P12392); test: Maximal response against Nicotinic acetylcholine receptor alpha2-beta4 in rat mid brain slices
# [13] = biological target: Neuronal acetylcholine receptor subunit alpha-7 (Rattus norvegicus, UniProt Q05941); test: Effective concentration against Nicotinic acetylcholine receptor alpha 7 in rat mid brain slices
# Chain of Neuronal acetylcholine receptor subunit alpha-7 (Rattus norvegicus, UniProt Q05941) (Q05941 whole entry): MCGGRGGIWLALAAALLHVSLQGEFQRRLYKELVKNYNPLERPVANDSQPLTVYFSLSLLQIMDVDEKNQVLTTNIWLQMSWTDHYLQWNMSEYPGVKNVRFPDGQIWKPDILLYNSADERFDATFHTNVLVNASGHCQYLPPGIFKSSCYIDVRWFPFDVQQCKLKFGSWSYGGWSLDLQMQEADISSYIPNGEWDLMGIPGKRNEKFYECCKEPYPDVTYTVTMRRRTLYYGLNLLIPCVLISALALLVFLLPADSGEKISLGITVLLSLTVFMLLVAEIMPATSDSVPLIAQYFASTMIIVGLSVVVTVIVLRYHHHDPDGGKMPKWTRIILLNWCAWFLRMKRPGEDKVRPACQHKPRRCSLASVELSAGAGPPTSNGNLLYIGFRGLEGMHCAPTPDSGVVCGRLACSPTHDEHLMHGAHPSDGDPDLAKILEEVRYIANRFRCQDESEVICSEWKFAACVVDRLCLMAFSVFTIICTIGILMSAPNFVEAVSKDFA
# [14] = biological target: Neuronal acetylcholine receptor; alpha3/beta2 (Rattus norvegicus, UniProt P04757+P12390); test: Effective concentration against Nicotinic acetylcholine receptor alpha3-beta2 in rat mid brain slices
# [15] = biological target: T3, Neuronal acetylcholine receptor; alpha4/beta2; test: Maximal response against Nicotinic acetylcholine receptor alpha4-beta2; assay type: protein-complex assay
# [16] = biological target: T6, Neuronal acetylcholine receptor; alpha4/beta4 (Homo sapiens, UniProt P30926+P43681); test: Effective concentration against Nicotinic acetylcholine receptor alpha4-beta4; assay type: protein-complex assay
# [17] = biological target: T7, Neuronal acetylcholine receptor; alpha4/beta2 (Rattus norvegicus) (UniProt P09483+P12390); test: Maximal response against Nicotinic acetylcholine receptor alpha4-beta2 in rat mid brain slices
# [18] = biological target: Neuronal acetylcholine receptor; alpha4/beta4 (Rattus norvegicus) (UniProt P09483+P12392); test: Maximal response against Nicotinic acetylcholine receptor alpha4-beta4 in rat mid brain slices
# [19] = biological target: T1, Neuronal acetylcholine receptor subunit alpha-7; test: Effective concentration against Nicotinic acetylcholine receptor alpha 7
# [20] = biological target: T8, Neuronal acetylcholine receptor; alpha2/beta4 (Homo sapiens, UniProt P30926+Q15822); test: Inhibitory concentration against Nicotinic acetylcholine receptor alpha2-beta4; assay type: protein-complex assay
# T8 sequence (P30926 whole entry): as the sequence (P30926 whole entry) above
# T8 sequence (Q15822 whole entry): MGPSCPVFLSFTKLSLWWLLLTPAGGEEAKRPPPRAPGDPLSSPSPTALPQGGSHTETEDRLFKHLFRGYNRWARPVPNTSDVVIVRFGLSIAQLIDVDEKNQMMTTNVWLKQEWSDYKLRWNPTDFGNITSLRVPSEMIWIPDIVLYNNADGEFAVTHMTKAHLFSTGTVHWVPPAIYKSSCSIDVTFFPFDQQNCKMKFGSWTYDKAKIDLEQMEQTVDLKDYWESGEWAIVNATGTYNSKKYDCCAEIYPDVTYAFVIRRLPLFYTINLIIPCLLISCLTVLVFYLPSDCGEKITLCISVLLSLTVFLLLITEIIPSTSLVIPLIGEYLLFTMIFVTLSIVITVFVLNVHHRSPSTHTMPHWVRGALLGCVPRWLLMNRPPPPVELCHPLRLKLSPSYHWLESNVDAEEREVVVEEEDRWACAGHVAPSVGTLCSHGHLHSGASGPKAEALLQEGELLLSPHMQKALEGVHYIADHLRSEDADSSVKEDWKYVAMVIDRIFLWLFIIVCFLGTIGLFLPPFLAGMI
# [21] = biological target: T4, Neuronal acetylcholine receptor; alpha3/beta4; test: Inhibitory concentration against Nicotinic acetylcholine receptor alpha3-beta4; assay type: protein-complex assay
# [22] = biological target: T1, Neuronal acetylcholine receptor subunit alpha-7; test: Inhibitory concentration against Nicotinic acetylcholine receptor alpha 7
# [23] = biological target: T2, Neuronal acetylcholine receptor; alpha3/beta2; test: Inhibitory concentration against Nicotinic acetylcholine receptor alpha3-beta2; assay type: protein-complex assay
# [24] = biological target: T8, Neuronal acetylcholine receptor; alpha2/beta4; test: Effective concentration against Nicotinic acetylcholine receptor alpha2-beta4; assay type: protein-complex assay
# [25] = biological target: T3, Neuronal acetylcholine receptor; alpha4/beta2; test: Effective concentration against Nicotinic acetylcholine receptor alpha4-beta2; assay type: protein-complex assay
# [26] = biological target: T4, Neuronal acetylcholine receptor; alpha3/beta4; test: Maximal response against Nicotinic acetylcholine receptor alpha3-beta4; assay type: protein-complex assay
# [27] = biological target: T2, Neuronal acetylcholine receptor; alpha3/beta2; test: Effective concentration against Nicotinic acetylcholine receptor alpha3-beta2; assay type: protein-complex assay
# [28] = biological target: T6, Neuronal acetylcholine receptor; alpha4/beta4; test: Maximal response against Nicotinic acetylcholine receptor alpha4-beta4; assay type: protein-complex assay
# [29] = biological target: T8, Neuronal acetylcholine receptor; alpha2/beta4; test: Maximal response against Nicotinic acetylcholine receptor alpha2-beta4; assay type: protein-complex assay
# [30] = biological target: Neuronal acetylcholine receptor subunit alpha-7 (Rattus norvegicus) (UniProt Q05941); test: as §1
# Chain of Neuronal acetylcholine receptor subunit alpha-7 (Rattus norvegicus) (Q05941 whole entry): as the sequence (Q05941 whole entry) above
# [31] = biological target: T8, Neuronal acetylcholine receptor; alpha2/beta4; test: Maximal response against Nicotinic acetylcholine receptor alpha2-beta4 expressed in HEK293 cells; assay type: cell-based
# [32] = biological target: T2, Neuronal acetylcholine receptor; alpha3/beta2; test: Maximal response against Nicotinic acetylcholine receptor alpha3-beta2; assay type: protein-complex assay
# [33] = biological target: T2, Neuronal acetylcholine receptor; alpha3/beta2; test: Effective concentration against Nicotinic acetylcholine receptor alpha3-beta2 expressed in xenopus oocytes; assay type: cell-based, Oocyte
# [34] = biological target: T5, Neuronal acetylcholine receptor; alpha3/beta4 (Rattus norvegicus); test: Maximal response against rat neural Nicotinic acetylcholine receptor alpha3-beta4; assay type: protein-complex assay
# [35] = biological target: T7, Neuronal acetylcholine receptor; alpha4/beta2 (Rattus norvegicus); test: Maximal response against rat neural Nicotinic acetylcholine receptor alpha4-beta2; assay type: protein-complex assay
# [36] = biological target: Neuronal acetylcholine receptor subunit alpha-7 (Rattus norvegicus) (UniProt Q05941); test: Maximal response against rat neural Nicotinic acetylcholine receptor alpha 7
# [37] = biological target: Neuronal acetylcholine receptor; alpha3/beta2 (Rattus norvegicus) (UniProt P04757+P12390); test: Maximal response against rat neural Nicotinic acetylcholine receptor alpha3-beta2; assay type: protein-complex assay
# [38] = biological target: T3, Neuronal acetylcholine receptor; alpha4/beta2; test: Inhibitory concentration against Nicotinic acetylcholine receptor alpha4-beta2; assay type: protein-complex assay
# [39] = biological target: T4, Neuronal acetylcholine receptor; alpha3/beta4; test: Maximal response against Nicotinic acetylcholine receptor alpha3-beta4 in [Ca2+] permeability and [Ca2+] modulation; assay type: protein-complex assay
# [40] = biological target: T1, Neuronal acetylcholine receptor subunit alpha-7; test: Effective concentration against Nicotinic acetylcholine receptor alpha 7 expressed in xenopus oocytes; assay type: cell-based, Xenopus laevis, Oocyte
# [41] = biological target: T2, Neuronal acetylcholine receptor; alpha3/beta2; test: Maximal response against Nicotinic acetylcholine receptor alpha3-beta2 in [Ca2+] permeability and [Ca2+] modulation; assay type: functional
# T1 sequence (P36544 whole entry): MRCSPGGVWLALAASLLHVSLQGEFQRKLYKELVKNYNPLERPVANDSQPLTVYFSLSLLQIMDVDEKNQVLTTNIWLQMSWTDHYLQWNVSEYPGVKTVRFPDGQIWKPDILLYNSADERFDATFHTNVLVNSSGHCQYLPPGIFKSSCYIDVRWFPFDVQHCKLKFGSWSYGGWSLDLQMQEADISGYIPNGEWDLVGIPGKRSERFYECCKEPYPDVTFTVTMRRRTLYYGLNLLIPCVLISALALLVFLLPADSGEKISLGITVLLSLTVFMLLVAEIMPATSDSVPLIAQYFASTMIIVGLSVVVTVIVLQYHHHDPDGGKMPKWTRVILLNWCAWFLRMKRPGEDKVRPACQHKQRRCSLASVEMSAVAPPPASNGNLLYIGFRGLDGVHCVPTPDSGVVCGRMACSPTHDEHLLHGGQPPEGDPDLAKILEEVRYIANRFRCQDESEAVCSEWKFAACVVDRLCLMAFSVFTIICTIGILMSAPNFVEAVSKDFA
smiles,measurement,setting,value
CC(=O)OCC[N+](C)(C)C [ACETYLCHOLINE],Rmax,[1],97%
same,Rmax,[2],100%
same,Rmax,[3],150%
same,Rmax,[4],172%
same,EC50,[5],83 µM
same,EC50,[6],20 µM
same,EC50,[7],203 µM
same,Rmax,[8],100%
same,EC50,[9],68 µM
CN[C@@H](C)C/C=C/c1cncc(OC(C)C)c1 [ISPRONICLINE],EC50,[10],> 10 µM
same,Rmax,[11],24%
same,Rmax,[12],56%
same,EC50,[13],> 100 µM
same,EC50,[14],> 100 µM
same,Rmax,[15],60%
same,EC50,[16],> 10 µM
same,Rmax,[17],33%
same,Rmax,[18],42%
same,EC50,[19],> 10 µM
CCN1C[C@]2(COC(=O)c3ccccc3N3C(=O)C[C@H](C)C3=O)CC[C@H](OC)[C@@]34[C@@H]5C[C@H]6[C@H](OC)[C@@H]5[C@](O)(C[C@@H]6OC)[C@](O)([C@@H](OC)[C@H]23)[C@@H]14 [METHYLLYCACONITINE],IC50,[20],> 1 µM
same,IC50,[21],> 1 µM
same,IC50,[22],> 1 µM
same,IC50,[23],> 1 µM
C#Cc1cncc([C@@H]2CCCN2C)c1 [ALTINICLINE],EC50,[10],10 µM
same,EC50,[24],3.2 µM
same,Rmax,[15],49%
same,EC50,[25],0.32 µM
same,EC50,[16],2 µM
same,Rmax,[26],52%
same,EC50,[27],3.2 µM
same,Rmax,[28],26%
same,Rmax,[29],49%
same,EC50,[19],> 10 µM
Clc1ccc(C2CC3CCC2N3)cn1 (centres undefined),Rmax,[30],97%
same,Rmax,[3],163%
same,Rmax,[4],117%
same,Rmax,[31],115%
same,Rmax,[28],99% and 85%
c1cnc2c(c1)O[C@H]1CCN3CC[C@@]1(C2)C3 [DIANICLINE],Rmax,[15],19%
same,EC50,[25],> 100 µM
same,EC50,[27],> 100 µM
O=c1cccc2n1C[C@@H]1CNC[C@H]2C1 [CYTISINICLINE],Rmax,[30],90% and 105%
same,Rmax,[3],55%
same,Rmax,[32],23 µM
same,Rmax,[4],42%
same,EC50,[5],39 µM
same,EC50,[6],0.9 µM
same,EC50,[33],67 µM
same,Rmax,[15],11% and 2%
same,EC50,[7],72 µM
same,Rmax,[29],58%
same,EC50,[9],2.7 µM
Cc1cc([C@@H]2CCN2C)on1,Rmax,[34],50%
same,Rmax,[35],55%
same,Rmax,[36],50%
same,Rmax,[37],119%
CNC1(C)C2CCC(C2)C1(C)C (centres undefined) [MECAMYLAMINE],IC50,[20],3.1 µM and 16 µM
same,IC50,[22],12.3 µM
same,IC50,[23],0.28 µM
same,Concentration,[38],0.78 µM
CN1CCC[C@H]1c1cccnc1 [NICOTINE],Rmax,[30],74% and 97%
same,Rmax,[3],100%
same,Rmax,[4],3.5%
same,EC50,[5],21 µM
same,EC50,[6],5 µM
same,Rmax,[15],73%
same,EC50,[7],80 µM
same,Rmax,[31],100%
same,Rmax,[28],100% and 85% and 108%
same,Rmax,[29],114%
same,EC50,[9],5.5 µM
CCCC1CCCNC(c2cccnc2)C1 (centres undefined),Rmax,[32],5%
same,Rmax,[15],3%
same,Rmax,[26],2%
same,EC50,[19],44 µM
C[N+]1(C)CCN(c2ccccc2)CC1 [DIMETHYLPHENYLPIPERAZINIUM],Rmax,[30],54%
same,Rmax,[39],107%
same,Rmax,[32],124%
same,EC50,[5],23 µM
same,EC50,[6],46 µM
same,EC50,[33],56 µM
same,Rmax,[15],90%
same,EC50,[40],31 µM
same,Rmax,[26],101%
same,EC50,[7],19 µM
same,Rmax,[41],100%
same,Rmax,[28],19%
same,Rmax,[29],58%
same,EC50,[9],18 µM
